Data published in ChEMBL document CHEMBL1255503, “Biochemical and biophysical characterization of unique switch pocket inhibitors of p38α” (Bioorg Med Chem Lett, 2010).

target: T1, Mitogen-activated protein kinase 14 (Homo sapiens, UniProt Q16539)
T1 sequence (Q16539 whole entry): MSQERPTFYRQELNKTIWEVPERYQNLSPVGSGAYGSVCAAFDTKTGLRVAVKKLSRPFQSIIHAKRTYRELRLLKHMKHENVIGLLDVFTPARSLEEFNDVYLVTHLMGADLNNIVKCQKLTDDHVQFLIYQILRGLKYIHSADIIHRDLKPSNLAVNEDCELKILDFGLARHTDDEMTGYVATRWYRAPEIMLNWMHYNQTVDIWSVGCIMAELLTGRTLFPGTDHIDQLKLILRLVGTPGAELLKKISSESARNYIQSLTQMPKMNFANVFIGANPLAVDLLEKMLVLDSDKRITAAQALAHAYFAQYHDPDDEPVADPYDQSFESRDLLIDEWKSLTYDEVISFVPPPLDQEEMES
Description: Binding affinity to full-length GST-tagged p38alpha by surface plasmon resonance assay

Row | Kd | SMILES
1 | 55 nM | Cc1ccc(-n2nc(C(C)(C)C)cc2NC(=O)Nc2cccc3ccccc23)cc1C(=O)NCC#N

target: T1, Mitogen-activated protein kinase 14; remark: another data set of the same source
Description: Binding affinity to full-length GST-tagged p38alpha after 2.5 hrs by TR-FRET competition binding assay

Row | SMILES | Ki
2 | Cc1ccc(-n2nc(C(C)(C)C)cc2NC(=O)Nc2cccc3ccccc23)cc1C(=O)NCC(CC(C)C)C(N)=O (stereo not drawn) | 786 nM
3 | Cc1ccc(-n2nc(C(C)(C)C)cc2NC(=O)Nc2cccc3ccccc23)cc1C(=O)NCCCN1CCCC1 | 301 nM
4 | Cc1ccc(-n2nc(C(C)(C)C)cc2NC(=O)Nc2cccc3ccccc23)cc1C(=O)NCCC1=CCCCC1 | > 3900 nM
5 | COc1ccc(CCNC(=O)c2cc(-n3nc(C(C)(C)C)cc3NC(=O)Nc3cccc4ccccc34)ccc2C)cc1 | > 3900 nM
6 | Cc1ccc(-n2nc(C(C)(C)C)cc2NC(=O)Nc2cccc3ccccc23)cc1C(=O)NCc1ccncn1 | 327 nM
7 | COc1ccccc1CCNC(=O)c1cc(-n2nc(C(C)(C)C)cc2NC(=O)Nc2cccc3ccccc23)ccc1C | > 3900 nM
8 | Cc1ccc(-n2nc(C(C)(C)C)cc2NC(=O)Nc2cccc3ccccc23)cc1C(=O)N(CCCN)C1CCCCC1 | 89 nM
9 | Cc1ccc(-n2nc(C(C)(C)C)cc2NC(=O)Nc2cccc3ccccc23)cc1C(=O)NC1CCN(CCN2CCOCC2)CC1 | 885 nM
10 | COCCCN1CCC(NC(=O)c2cc(-n3nc(C(C)(C)C)cc3NC(=O)Nc3cccc4ccccc34)ccc2C)CC1 | 336 nM

The remaining molecules from weak to strong by Ki, led by results:

Row | Ki | SMILES
11 | 735 nM | CCN(CCN(C)C)C(=O)c1cc(-n2nc(C(C)(C)C)cc2NC(=O)Nc2cccc3ccccc23)ccc1C
12 | 471 nM | Cc1ccc(-n2nc(C(C)(C)C)cc2NC(=O)Nc2cccc3ccccc23)cc1C(=O)NC[C@@H](CO)C(C)C
13 | 433 nM | Cc1ccc(-n2nc(C(C)(C)C)cc2NC(=O)Nc2cccc3ccccc23)cc1C(=O)NCCNc1ccccc1
14 | 312 nM | Cc1ccc(-n2nc(C(C)(C)C)cc2NC(=O)Nc2cccc3ccccc23)cc1C(=O)N(CCCN)C(C)C
15 | 291 nM | Cc1ccc(-n2nc(C(C)(C)C)cc2NC(=O)Nc2cccc3ccccc23)cc1C(=O)NCCCN1CCOCC1
16 | 252 nM | Cc1ccc(-n2nc(C(C)(C)C)cc2NC(=O)Nc2cccc3ccccc23)cc1C(=O)NCC#N
17 | 140 nM | Cc1ccc(-n2nc(C(C)(C)C)cc2NC(=O)Nc2cccc3ccccc23)cc1C(=O)NCCN1CCN(C)CC1
18 | 112 nM | Cc1ccc(-n2nc(C(C)(C)C)cc2NC(=O)Nc2cccc3ccccc23)cc1C(=O)N[C@@H]1CS(=O)(=O)C[C@H]1O
